From patent EP1247803A2, “Indolinone compounds suitable for modulation of protein kinases” (Sugen, Inc., priority 1996, dated 1998) come the findings set out here.

For one test, the system named is MET. The test is described as follows: MET biochemical kinase assay. The arrangement: species or system human; concentration or dose not given beside the values. A digest of the protocol: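 MET from cell lysates captured on ELISA plates via rabbit anti-MET cytoplasmic-domain antibody; compounds added and kinase reaction run in ATP and divalent-metal buffer. Receptor phosphotyrosine detected with HRP-conjugated anti-phosphotyrosine antibody and TMB colorimetry.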

The target of a further test is T1, EGFR (Homo sapiens, UniProt P00533).
T1 construct: Add 7 ug A431 cell lysate per well (EGFR source); endogenous in cells; host or cells: A431
Kind of test: EGFR ELISA assay (in vitro kinase activity, EGFR captured from A431 cell lysate). It is filed as biochemical. The arrangement: concentration or dose not given beside the values. Summed up: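 EGFR from A431 lysate was captured on anti-EGFR antibody-coated plates and preincubated with compounds for 30 min. Autophosphorylation ran 5 min with 3 uM ATP and 5 mM MnCl2 (final), stopped with 20 mM EDTA. Phosphotyrosine was detected by anti-pTyr ELISA with ABTS/H2O2, read at 410 nm.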
(ELISA stands for enzyme-linked immunosorbent assay.)

T1 sequence (P00533 25-1210): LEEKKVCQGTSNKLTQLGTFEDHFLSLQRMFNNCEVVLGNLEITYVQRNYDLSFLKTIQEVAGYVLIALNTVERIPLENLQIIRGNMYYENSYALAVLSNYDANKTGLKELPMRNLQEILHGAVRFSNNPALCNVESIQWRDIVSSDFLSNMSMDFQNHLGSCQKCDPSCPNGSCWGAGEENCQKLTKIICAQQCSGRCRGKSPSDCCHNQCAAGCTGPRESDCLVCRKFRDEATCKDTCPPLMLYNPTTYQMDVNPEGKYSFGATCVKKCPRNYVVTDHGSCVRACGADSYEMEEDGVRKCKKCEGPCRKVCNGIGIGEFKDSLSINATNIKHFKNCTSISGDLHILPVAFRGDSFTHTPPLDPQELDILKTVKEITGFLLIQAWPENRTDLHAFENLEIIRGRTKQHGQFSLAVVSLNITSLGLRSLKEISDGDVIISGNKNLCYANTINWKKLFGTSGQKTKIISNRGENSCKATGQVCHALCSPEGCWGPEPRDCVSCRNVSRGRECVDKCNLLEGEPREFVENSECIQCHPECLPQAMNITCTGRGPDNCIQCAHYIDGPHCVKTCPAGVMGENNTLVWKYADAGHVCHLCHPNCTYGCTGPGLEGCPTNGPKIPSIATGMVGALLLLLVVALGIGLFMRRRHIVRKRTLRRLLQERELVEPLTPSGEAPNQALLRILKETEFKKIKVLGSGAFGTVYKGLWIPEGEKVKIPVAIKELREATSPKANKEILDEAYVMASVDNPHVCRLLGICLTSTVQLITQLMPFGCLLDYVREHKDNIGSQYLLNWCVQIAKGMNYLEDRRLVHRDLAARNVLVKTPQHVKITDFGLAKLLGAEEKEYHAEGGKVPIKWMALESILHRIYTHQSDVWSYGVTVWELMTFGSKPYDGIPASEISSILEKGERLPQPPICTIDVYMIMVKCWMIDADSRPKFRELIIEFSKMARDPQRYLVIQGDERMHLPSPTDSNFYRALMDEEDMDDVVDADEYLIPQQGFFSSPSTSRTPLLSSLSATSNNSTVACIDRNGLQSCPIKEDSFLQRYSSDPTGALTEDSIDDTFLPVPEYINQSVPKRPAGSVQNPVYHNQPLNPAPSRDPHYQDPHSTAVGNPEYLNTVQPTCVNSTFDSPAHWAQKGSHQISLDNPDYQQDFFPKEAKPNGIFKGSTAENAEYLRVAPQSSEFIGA

In the case of `COC1CC(C=C2C(=O)Nc3ccc(S(=O)(=O)N4CCOCC4)cc32)C(OC)O1` (stereo not shown) [10730/F10], in the test on MET, the “Met Kinase % Inhibition” value worked out at 42.1%. At EGFR, the “Biochem EGFR %Inhibition” value is listed as 6.2%.
On to `CC(=O)n1cc(C=C2C(=O)Nc3ccc(CCCl)cc32)c2ccccc21` [10730/G05], for which, in the test with MET, the “Met Kinase % Inhibition” value came to 35.8%. Further, the “Biochem EGFR %Inhibition” value on EGFR was -18.2%.
The like results for `O=C1Nc2c(Br)cc(Br)cc2C1=Cc1ccc[nH]1` [10717/A09] were, in that order, 9.4% and 37.7%.
Turning to `COc1ccc2[nH]cc(C=C3C(=O)Nc4c(Br)cc(Br)cc43)c2c1` [10731/A09], the “Met Kinase % Inhibition” value in the test with MET stood at 46.7%. Moreover, at EGFR, the “Biochem EGFR %Inhibition” value worked out at 21.9%.
The like results for `C=C(C)C1CC=C(C=C2C(=O)Nc3ccc(I)cc32)CC1` (stereo not shown) [10731/B04] were, in that order, 71.0% and 31.3%.
The like results for `CCn1c2ccccc2c2cc(C=C3C(=O)Nc4ccc(I)cc43)ccc21` [10731/B02] were, in that order, 71.6% and 15.5%.
For the compound `COC1CC(C=C2C(=O)Nc3ccc(CCCl)cc32)C(OC)O1` (stereo not shown) [10730/G10], the “Met Kinase % Inhibition” value in the test on MET is 42.1%. Further, on EGFR, the “Biochem EGFR %Inhibition” value is listed as 3.1%.
In the same order, the values of `Cc1cc2occ(C=C3C(=O)Nc4ccc(Br)c(C)c43)c(=O)c2cc1C` [10731/C03] are 38.7% and 9.1%.
In the same order, the values of `Cc1c(Br)ccc2c1C(=Cc1coc3ccc([N+](=O)[O-])cc3c1=O)C(=O)N2` [10731/C07] are -11.6% and 35.5%.
For the compound `O=C1Nc2ccc(I)cc2C1=Cc1c[nH]c(=O)[nH]c1=O` [10731/B08], the “Met Kinase % Inhibition” value with MET is 57.4%. The “Biochem EGFR %Inhibition” value on EGFR turned out to be 37.2%.
On to `Cc1cc2occ(C=C3C(=O)Nc4ccc(I)cc43)c(=O)c2cc1C` [10731/B03], for which the “Met Kinase % Inhibition” value in the test on MET was found to be 60.9%. Also, on EGFR, the “Biochem EGFR %Inhibition” value was 12.3%.
In the case of `Cc1cc2occ(C=C3C(=O)Nc4c(Br)cc(Br)cc43)c(=O)c2cc1C` [10731/A03], the “Met Kinase % Inhibition” value in the test with MET came to 54.8%. At EGFR, the “Biochem EGFR %Inhibition” value worked out at 10.8%.
Regarding `Cc1c(Br)ccc2c1C(=Cc1c[nH]c(=O)[nH]c1=O)C(=O)N2` [10731/C08], the “Met Kinase % Inhibition” value in the test with MET came to 25.8%. Moreover, the “Biochem EGFR %Inhibition” value at EGFR is on record as 23.6%.
The like results for `COc1ccc2[nH]cc(C=C3C(=O)Nc4ccc(Br)c(C)c43)c2c1` [10731/C09] were, in that order, 22.7% and 16.8%.
The like results for `Cc1cc(C=C2C(=O)Nc3ccc(CCCl)cc32)oc1C` [10730/G11] were, in that order, 46.1% and 26.2%.
As for `CN1C(=O)C(=C2C(=O)Nc3ccc(I)cc32)c2ccccc21` [10731/B10], the “Met Kinase % Inhibition” value with MET was determined as 72.9%. The “Biochem EGFR %Inhibition” value on EGFR amounted to 50.5%.
The like results for `CC(C)c1ccc2occ(C=C3C(=O)Nc4c(Br)cc(Br)cc43)c(=O)c2c1` [10731/A05] were, in that order, 85.8% and 34.3%.
Take `Cc1ccc2occ(C=C3C(=O)Nc4c(Br)cc(Br)cc43)c(=O)c2c1` [10731/A06]: in the test on MET, the “Met Kinase % Inhibition” value worked out at 53.0%. Besides, on EGFR, the “Biochem EGFR %Inhibition” value turned out to be 30.1%.
`Cc1c(Br)ccc2c1C(=Cc1ccc(Cl)c([N+](=O)[O-])c1)C(=O)N2` [10718/C08]: in the test on MET, the “Met Kinase % Inhibition” value came out at 22.7%. Also, the “Biochem EGFR %Inhibition” value on EGFR is recorded as 13.1%.
For `COC(=O)c1[nH]c(C)c(C=C2C(=O)Nc3ccc(Br)c(C)c32)c1C(=O)OC` [10718/C07], the “Met Kinase % Inhibition” value in the test on MET came out at 29.6%. For the same compound, at EGFR, the “Biochem EGFR %Inhibition” value was -4.9%.
In the same order, the values of `O=C1Nc2ccc(S(=O)(=O)N3CCOCC3)cc2C1=Cc1coc2c(Br)cc(Br)cc2c1=O` [10730/F09] are 71.1% and 17.9%.
As for `CCn1c2ccccc2c2cc(C=C3C(=O)Nc4ccc(S(=O)(=O)NC)cc43)ccc21` [10731/D02], the “Met Kinase % Inhibition” value in the test on MET is listed as 8.7%. Besides, the “Biochem EGFR %Inhibition” value at EGFR was 4.9%.
In the same order, the values of `C=C(C)C1CC=C(C=C2C(=O)Nc3ccc(Br)c(C)c32)CC1` (stereo not shown) [10731/C04] are 32.5% and 31.0%.
